Publication PMC3229595, “Discovery of Novel MDR-Mycobacterium tuberculosis Inhibitor by New FRIGATE Computational Screen” (PLoS ONE, 2011)
≈ marks a conversion by molar mass, not a printed value.

Tests used:
[1] = target: T1, antigen 85C (Ag85C) (Mycobacterium tuberculosis, UniProt P9WQN9); experiment: […]-HSQC NMR titration (chemical shift perturbation); format: binding
T1 construct: gene fbpC

[2] = system: T2, Mycobacterium smegmatis Msmeg; experiment: microbe, parasite or virus in culture; set-up: species or system Mycobacterium smegmatis DSM 43465; broth microdilution MIC in CAMHB, MTT staining, visual read-out; details: Mycolicibacterium smegmatis; read-out: Msmeg growth inhibition [MIC ug/mL]
T2 construct: DSM 43465
Procedure: The BEI parameter is conceptually very similar to previously published ligand efficiency (LE) parameters that normalize logarithmic affinity by non-hydrogen atom count rather than molecular weight ^5-7. Experimental Section Antibacterial in vitro assay for M. smegmatis. For MIC assays according to the Clinical and Laboratory Standards Institute M. smegmatis (strain DSM 43465) cells were grown in CAMHB medium at 35°C to an OD625nm higher than 0.09 followed by a dilution in medium to reach OD625nm of […] (“0.5 McFarland Standard”). These cell suspensions were brought to approximately 1 * 10^6 CFU/ml which corresponds to a 1:200 dilution. Resulting cell inoculi were diluted 1:1 with medium containing increasing concentrations of test compound as indicated in 96 well plates in duplicates (cell titer and purity of inoculum was checked in parallel by plating out on CAMHB-agar). After 24 – 48 h incubation MTT-solution (5 mg/ml thiaolyl blue tetrazoliumbromide) were added to stain wells with living cells and plates were photographed ^8. Wells with the lowest concentration of compound that were free of the dark brown color of bacteria were considered MICs. Ampicillin was used as a positive control antibiotic. Learning from the rich literature of potent in vitro enzyme inhibitors that were discarded due to the lack of antibacterial activity, we assayed the 31 selected FRIGATE hits for antibacterial activity prior to in vitro follow-up work. We utilized the less pathogenic and faster growing Mtb model organism Msmeg for primary growth inhibition testing.

T1 sequence (P9WQN9 46-340): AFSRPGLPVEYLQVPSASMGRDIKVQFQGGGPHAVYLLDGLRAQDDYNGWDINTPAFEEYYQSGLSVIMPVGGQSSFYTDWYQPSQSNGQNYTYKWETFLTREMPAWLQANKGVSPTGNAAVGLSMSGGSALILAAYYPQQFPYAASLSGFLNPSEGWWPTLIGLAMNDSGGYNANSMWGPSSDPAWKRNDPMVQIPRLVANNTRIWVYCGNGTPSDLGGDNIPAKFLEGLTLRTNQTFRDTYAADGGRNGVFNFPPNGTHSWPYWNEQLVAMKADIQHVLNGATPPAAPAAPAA

Structure (SMILES)	Kd [1] [µM]	MIC [2] [µg/mL]
Cc1cccn2c(=O)c3cc(C(=O)NCCCn4ccnc4)n(Cc4ccccc4)c3nc12 [compound 1, N-[3-(1H-imidazol-1-yl)propyl]-1-benzyl-9-methyl-4-oxo-1,4-dihydropyrido[1,2-a]pyrrolo[2,3-d]pyrimidine-2-carboxamide]	177	< 50
CC1=C(C#N)c2nc(N)c(C#N)cc2C1=Cc1ccc(-c2ccccc2C(=O)O)o1 [compound 2, 2]		> 200
OC(CNC1CCc2ccccc21)COc1ccc(-c2csnn2)cc1 (stereo not shown) [compound 3, 3]		100 (≈ 272 µM)
